# Assay results taken from US20240293493A1, “COMPOSITION FOR ALLEVIATING, TREATING, OR PREVENTING MUSCULAR DISEASES, OR IMPROVING MUSCULAR FUNCTIONS, CONTAINING KOREAN MINT EXTRACT OR TILIANIN AS ACTIVE INGREDIENT” (AAT COSTECH CO., LTD., priority 2020, published 2024).
# How the values were obtained:
# mTOR = mTOR activity in L6 myotubes by mTOR sandwich ELISA kit; type: cell-based; settings: 20 μM or 40 μM tilianin, vs control group
# Experimental: It is known that the activation of the mTOR protein by phosphorylation can induce muscle protein synthesis in muscle cells by the PI3K/Akt signaling pathway and can activate proteins involved in increase of muscle mass. Therefore, in order to investigate the activity of inducing muscle formation of Korean mint, the activity of mTOR was investigated using a mTOR sandwich ELISA kit (Cell Signaling Technology, Beverly, MA, USA).
# L6 myoblasts (ATCC; Manassas, VA, USA) were seeded on a 6-well plate at 1×10^5 cells/well with Dulbecco's modified Eagle's medium (DMEM; Hyclone) containing 10% fetal bovine serum (FBS; Hyclone, Logan, UT, USA) and then cultured for 24 hours. […]
# (Hyclone) containing 2% horse serum (HS; Hyclone). […] Proteins in the obtained cell lysate were quantified at a concentration of 1 mg/mL by Bradford assay (Bio-Rad Laboratories Inc., Hercules, CA, USA). […] 2 minutes later, the mTOR level in the myotubes treated with the extract of Korean mint leaf was measured by measuring absorbance at 450 nm. […] The difference between groups was analyzed through Duncan's multiple range test by one-way analysis of variance using the SPSS25.0 statistical package (SPSS Inc., Chicago, IL, USA). […]
# mTOR activity was measured in the same manner as in Example 3 except that the extracts of the aerial part of Korean mint of Example 1-2 to Example 1-8 were treated at 80 μg/mL. […]
# MuRF1 = MuRF1 mRNA expression in TNF-α-treated L6 myotubes (RT-PCR); type: cell-based; settings: TNF-α treatment, 20 µM or 40 µM tilianin
# Experimental: (§1) L6 myoblasts (ATCC), which are muscle cells, were added to a 6-well plate with DMEM (Hyclone) containing 10% FBS (Hyclone) at 1×10^5 cells/mL. When the cell density reached about 80-85%, the medium remaining in the well was removed and differentiation into myotubes was induced by treating the cells with DMEM (Hyclone) containing 2% HS (Hyclone). The differentiation was performed for a total of 6 days while replacing the medium with a fresh one every 2 days. After the differentiation, […], which was dissolved in DMEM (Hyclone) containing 50 ng/ml tumor necrosis factor alpha (TNF-α; PeproTech, Rocky Hills, NJ, USA). 12 hours later, total RNA was isolated using a TRIzol reagent (Takara, Otsu, Japan). The isolated total RNA was quantified using NanoDrop 1000 (Thermo Fisher Scientific Inc., Waltham, MA, USA). cDNA was synthesized from 16 μL of the quantified RNAs using a reverse transcriptase premix (ELPIS-Biotech) and a PCR machine (Gene Amp PCR System 2700; Applied Biosystems, Foster City, CA, USA) under the condition of 42° C. for 55 minutes and 70° C. for 15 minutes. PCR was performed by repeating 30 cycles of 95° C. for 30 seconds, 60° C. for 1 minute and 72° C. for 1 minute using 1 μL of cDNA from 16 μL of the produced cDNA, specific primers described below (Bioneer, Daejeon, Korea) and a PCR premix (ELPIS-Biotech). […]
# atrogin-1 = atrogin-1 mRNA expression in TNF-α-treated L6 myotubes (RT-PCR); type: cell-based; settings: TNF-α treatment, 20 µM or 40 µM tilianin
# Experimental: as §1
# [1] = tested on: muscle atrophy-induced mice; experiment: Muscular strength in mice with skin-stapler immobilization muscle atrophy; type: in vivo, mice (C57BL/6J); settings: tilianin 20 mg/kg orally every day, compared with muscle atrophy group
# Experimental: (§2) 7-week-old male mice (C57BL/6J; DBL, Korea) were purchased as experimental animals. The breeding environment was maintained at a temperature of 23±2° C. and a relative humidity of 55±10%. Before the start of the experiment, a total of 20 mice were randomly divided into groups of 5 mice each. After a week of acclimation, anesthesia was induced by intraperitoneal injection of 325 mg/kg tribromoethanol (Sigma-Aldrich). After the anesthesia, the right hindlimb gastrocnemius muscle and the right sole of the mice in a muscle atrophy group and a sample administration group were stapled using a skin stapler (Unidus, Chungcheongbuk-do, Korea) to damage the muscle and keep the right hindlimb from moving. This state was maintained for a week. […]
# After the end of the oral administration period, the muscular strength of the mice was measured using a muscular strength meter (Panlab, Barcelona, Spain). […]
# (§3) After inducing muscle atrophy in the same manner as in Example 12-1, tilianin was orally administered every day at a concentration of 20 mg/kg. Then, muscular strength and muscle weight were measured in the same manner as in Example 12-2 and Example 12-3.
# [2] = tested on: muscle atrophy-induced mice; experiment: Tibialis anterior muscle weight in muscle atrophy-induced mice; type: in vivo, mice (C57BL/6J); settings: tilianin 20 mg/kg orally every day, compared with muscle atrophy group
# Experimental: as §2, §3
structure (smiles),measurement,setting,value
COc1ccc(-c2cc(=O)c3c(O)cc(O[C@@H]4O[C@H](CO)[C@@H](O)[C@H](O)[C@H]4O)cc3o2)cc1 [tilianin],mTOR activity (FIG. 3),mTOR,significantly increased
same,mRNA of MuRF1 (FIG. 4),MuRF1,decreased
same,mRNA of atrogin-1 (FIG. 4),atrogin-1,decreased
same,increase of muscular strength,[1],30.3%
same,increase of muscle weight,[2],15.2%
